Test results published in the supplement of paper PMC4862054.

What was measured:
Details in all cases: incubation time: 72 h
CAL-148 [1] = assay: drug sensitivity score (DSS), CellTiter-Blue viability (DSS (AUC-based score)); higher = stronger viability inhibition; extreme values may be limits of the assay
How it was run: (§1)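 A 72 h incubation followed seeding of breast cancer cell lines (20 µl suspension) into 384-well plates holding compound in a 5- or 9-concentration series. CellTiter-Blue, 2.5 µl per well, was incubated 2 h at 37 °C, and fluorescence was measured at 560/590 nm. Normalisation on every plate used 0.1 % DMSO and a positive kill control. From the fitted dose-response curve, the area under the curve was taken as the drug sensitivity score.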

CAL-51 [2] = assay: as above
How it was run: as §1

MDA-MB-436 [3] = assay: as above
How it was run: as §1

BT-474 = assay: drug sensitivity score (DSS), CellTox Green (DSS (AUC-based score)); higher = stronger drug effect (viability inhibition or cytotoxicity); extreme values may be limits of the assay
How it was run: (§2)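 For 72 h, breast cancer cell lines seeded at 20 µl suspension per well in 384-well plates were incubated with compound at 5 concentrations in 10-fold steps spanning a 10,000-fold range that differed by compound. The first reading was CellTox Green fluorescence at 485/520 nm, and the second was CellTiter-Glo luminescence after 10 min at room temperature. Both were normalised per plate to 0.1 % DMSO and a positive kill control, and the drug sensitivity score was obtained from the area under the fitted dose-response curve.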

BT-549 = assay: as above
How it was run: as §2

CAL-120 = assay: as above
How it was run: as §2

CAL-148 [4] = assay: as above
How it was run: as §2

CAL-51 [5] = assay: as above
How it was run: as §2

CAL-85-1 = assay: as above
How it was run: as §2

DU-4475 = assay: as above
How it was run: as §2

HCC1143 = assay: as above
How it was run: as §2

HCC1599 = assay: as above
How it was run: as §2

HCC1937 = assay: as above
How it was run: as §2

HDQ-P1 = assay: as above
How it was run: as §2

MCF-10A = assay: as above
How it was run: as §2

MDA-MB-231 = assay: as above
How it was run: as §2

MDA-MB-436 [6] = assay: as above
How it was run: as §2

MDA-MB-453 = assay: as above
How it was run: as §2

MDA-MB-468 = assay: as above
How it was run: as §2

MFM-223 = assay: as above
How it was run: as §2

Hs578T = assay: as above
How it was run: as §2

SMILES | drug sensitivity score (CAL-148 [1]) | drug sensitivity score (CAL-51 [2]) | drug sensitivity score (MDA-MB-436 [3]) | drug sensitivity score (BT-474) | drug sensitivity score (BT-549) | drug sensitivity score (CAL-120) | drug sensitivity score (CAL-148 [4]) | drug sensitivity score (CAL-51 [5]) | drug sensitivity score (CAL-85-1) | drug sensitivity score (DU-4475) | drug sensitivity score (HCC1143) | drug sensitivity score (HCC1599) | drug sensitivity score (HCC1937) | drug sensitivity score (HDQ-P1) | drug sensitivity score (MCF-10A) | drug sensitivity score (MDA-MB-231) | drug sensitivity score (MDA-MB-436 [6]) | drug sensitivity score (MDA-MB-453) | drug sensitivity score (MDA-MB-468) | drug sensitivity score (MFM-223) | drug sensitivity score (Hs578T)
Cc1c(N)nc([C@H](CC(N)=O)NC[C@H](N)C(N)=O)nc1C(=O)N[C@H](C(=O)N[C@H](C)[C@@H](O)[C@H](C)C(=O)N[C@H](C(=O)NCCc1nc(-c2nc(C(=O)NCCC[S+](C)C)cs2)cs1)[C@@H](C)O)[C@@H](OC1OC(CO)C(O)C(O)C1OC1OC(CO)C(O)C(OC(N)=O)C1O)c1cnc[nH]1 (stereo partly specified) [Bleomycin] | 0 | 0.892 | 4.58 | 0 | 1.71 | 0 | 8.42 | 19.8 | 0.93 | 0 | 0 | 0 | 0 | 0 | 0 | 4.48 | 2.42 | 0 | 0 | 0 | –
Cc1cc2c(F)c(Oc3ncnn4cc(OC[C@@H](C)O)c(C)c34)ccc2[nH]1 [Brivanib] | 0 | 0 | 0 | 0 | 0 | 0 | 0 | 0 | 0.499 | 0 | 0 | 0 | 0 | 0 | 0 | 0 | 2.68 | 0 | 0 | 0 | 0
CCCCCOC(=O)Nc1nc(=O)n([C@@H]2O[C@H](C)[C@@H](O)[C@H]2O)cc1F [Capecitabine] | 0 | 0 | 0 | 0 | 0 | 0 | 0 | 0 | 0 | 0 | 0 | 0 | 0 | 0 | 0 | 0 | 0 | 0 | 0 | 3.74 | –
CC(C)C[C@H](NC(=O)[C@H](CCc1ccccc1)NC(=O)CN1CCOCC1)C(=O)N[C@@H](Cc1ccccc1)C(=O)N[C@@H](CC(C)C)C(=O)[C@@]1(C)CO1 [Carfilzomib] | 18.8 | 19.6 | 20.5 | 8.3 | 8.43 | 17.2 | 19 | 24.4 | 24.8 | 0 | 0 | 0 | 18.4 | 19.1 | 9.99 | 24.1 | 19.2 | 0 | 37.2 | 14.4 | 16.7
Nc1nc(Cl)nc2c1ncn2[C@@H]1O[C@H](CO)[C@@H](O)[C@@H]1F [Clofarabine] | 11.3 | 11.1 | 11.8 | 0 | 0 | 0 | 7.09 | 16.7 | 3.72 | 0 | 0 | 0 | 0 | 0 | 0 | 0 | 0 | 0 | 0.395 | 0 | 0
CCN(CC)CCOc1ccc(C(=C(Cl)c2ccccc2)c2ccccc2)cc1 [Clomifene] | 0 | 0 | 2.07 | 5.14 | 0 | 1.48 | 0 | 0 | 2.27 | 1.43 | 0 | 1.4 | 8.71 | – | 3.53 | 8.18 | 0 | 2.83 | 0 | 9.19 | 7.35
C[C@@H]1C[C@H]2[C@@H]3CCC4=CC(=O)C=C[C@]4(C)[C@@]3(F)[C@@H](O)C[C@]2(C)[C@@]1(O)C(=O)CO [Dexamethasone] | 0 | 0 | 0 | 0 | 0 | 0 | 0 | 0 | 0 | 0 | 0 | 0 | 0 | 0 | 3.19 | 0 | 0 | 0 | 0 | 0 | 1.94
CC(C)C(=O)Nc1ccc([N+](=O)[O-])c(C(F)(F)F)c1 [Flutamide] | 0 | 0 | 0 | 0 | 0 | 0 | – | 0 | 0 | 0 | 0 | 0 | 0 | 0 | 0 | 0 | 0 | 0 | 0 | 0 | 0
NC(=O)NO [Hydroxyurea] | 0 | 0 | 0 | 0 | 0 | 0 | 0 | 8.77 | 0 | 0 | 0 | 0 | 0 | 0 | 0 | 0 | – | 0 | 0 | 0 | –
O=NN(CCCl)C(=O)NC1CCCCC1 [Lomustine] | 0 | 0 | 0 | 0 | 0 | 0 | 0 | 0 | 0 | 0 | 0 | 0 | 0 | 0 | 0 | – | 0 | 0 | 0 | 0 | 0
O=C(O)CC[C@H]1CC[C@@](c2cc(F)ccc2F)(S(=O)(=O)c2ccc(Cl)cc2)CC1 [MK-0752] | 0 | 0 | 0 | 0 | 0 | 0 | – | 0 | 1.74 | 0 | 0 | 0 | 0 | 0 | 0 | 0 | 0 | 1.23 | 0 | 0 | 0
NC(=O)c1cccc2cn(-c3ccc([C@@H]4CCCNC4)cc3)nc12 [MK-4827] | 2.86 | 5.3 | 0 | 0 | 0 | 0 | 0 | 3.35 | 2.02 | 0 | 0 | 0 | – | 0 | 0 | 0 | 0 | 0 | 0 | 0 | 0
Cc1c(C(=O)Nc2ccc(N3C[C@@H](C)O[C@@H](C)C3)nc2)cccc1-c1ccc(OC(F)(F)F)cc1 [NVP-LDE225] | 0 | 0 | 0 | – | – | – | – | – | – | – | – | – | – | – | – | – | – | – | – | – | –
O=C(c1cc(Cc2n[nH]c(=O)c3ccccc23)ccc1F)N1CCN(C(=O)C2CC2)CC1 [Olaparib] | 0 | 3.33 | 0 | 0 | 0 | 0 | 0 | 3.38 | 0 | 0 | 0 | 0 | 0 | – | 0 | 1.54 | 8.45 | 0 | 0 | 0 | 0
C[C@]12C=CC(=O)C=C1CC[C@@H]1[C@@H]2C(=O)C[C@@]2(C)[C@H]1CC[C@]2(O)C(=O)CO [Prednisone] | 0 | 0 | 0 | 0 | 0 | 0.113 | 0 | 0 | 0 | 0 | 0 | 0 | 0 | 0 | 0 | 0 | 0 | 0 | 0 | 0 | –
CN1CCN(c2nc(C3=C(c4c[nH]c5ccccc45)C(=O)NC3=O)c3ccccc3n2)CC1 [Sotrastaurin] | 0 | 0 | 0 | 0 | 0 | 0 | – | 0 | 0 | 0 | 0 | 0 | 0 | 0 | 0 | 0 | 0 | 0 | 0 | 0 | 0
C[C@@H](C(=O)O)c1ccc(-c2ccccc2)c(F)c1 [Tarenflurbil] | 0 | 0 | 0 | 0.00754 | 0 | 0 | 0 | 0 | 0 | 0 | 0 | 0 | 0 | 0 | 0.986 | 0 | 0 | 0 | 0 | 0 | –
